# Measurements taken from patent publication US20260242388A1, “NBD1 MODULATORS AND METHODS OF USING THE SAME” (Sionna Therapeutics Inc., priority 2023, published 2026).
# Experiments:
# [1] = tested on: NBD1; assay: Aggregation analysis using differential static light scattering (DSLS), thermal stability of NBD1; assay type: binding, Human; details: 100 μM compound; ΔTagg = Tagg minus average Tagg of DMSO control wells; NBD1 0.2 mg/ml
# Procedure: Example 23. Aggregation Analysis Using Differential Static Light Scattering (DSLS)
# Purified recombinant NBD1 was produced using previously described methods (A. Schmidt, J. L. Mendoza, P. J. Thomas (2011) Biochemical and Biophysical Approaches to Probe CFTR Structure (365-376) M. D. Amaral, K. Kunzelmann (eds.), Cystic Fibrosis, Methods in Molecular Biology 741, Springer Science+Business Media). The effect of test compounds on thermal stability of NBD1 was evaluated by differential static light scattering (DSLS) using the Harbinger Stargazer-384 instrument (Epiphyte Three, Toronto, Canada). Test compounds were dissolved and diluted to desired concentrations in 100% DMSO. The compounds or DMSO controls (100 nL) were stamped into wells of a […] low volume optical plate (Corning Inc., Corning, NY) using the Echo 555 acoustic liquid handler (Labcyte Inc., San Jose, CA).
# NBD1 protein was diluted to 0.2 mg/ml in S200 buffer (50 mM Tris-HCl, 150 mM NaCl, 5 mM MgCl2, 2 mM ATP, 2 mM DTT, pH7.6) containing 1% glycerol. 10 μL of protein solution was aliquoted into the 384-well plate harboring the test compounds and 10 μL mineral oil was overlayed onto the protein solution, using the epMotion robotic liquid handler (Eppendorf North America, Hauppauge, NY). After placing into the Stargazer instrument, the plate was heated at 1° C. per minute to 70° C. Images were captured from 25° C. to 70° C. every 0.5° C. At the end of the experiment run, instrument software integrated image files and analyzed data automatically. A linear regression curve was generated for each well, representing the increase in light scattering over time. A temperature of aggregation (Tagg) was calculated based on the inflection point of the curve. To better compare data across experiments the average Tagg for DMSO control wells was calculated and subtracted from values for wells containing compounds to obtain a “ΔTagg” value. These ΔTagg values reflect stabilizing efficacy of the compounds.
# [2] = biological target: T1, CFTR (Homo sapiens, UniProt P13569, DEL508-508); assay: TECC24 recording of CFTR-mediated transepithelial chloride transport in ΔF508 homozygous CF-HBE cells; assay type: cell-based; details: 48 hours incubation, AUC of forskolin-stimulated IEQ, test agent AUC divided by vehicle (DMSO) AUC, primary CF-HBE cells
# T1 construct: Primary human bronchial epithelial cells from a ΔF508 homozygous CF donor; host or cells: primary CF-HBE cells, ΔF508 homozygous donor
# Procedure: Example 24. TECC24 AUC Fold Over DMSO @10 μM
# The effects of a test agent on CFTR-mediated transepithelial chloride transport was measured using TECC24 recording analysis. Test agents were solubilized in DMSO. Solubilized test agents were mixed with incubation medium containing DMEM/F12, Ultroser G (2%; Crescent Chemical, catalog #67042), Hyclone Fetal Clone 11 (2%; GE Healthcare, catalog #SH30066.02), bovine brain extract (0.25%; Lonza, catalog #CC-4098), insulin (2.5 μg/mL), IL-13 (10 ng/mL), hydrocortisone (20 nM), transferrin ([…]), triiodothyronine (500 nM), ethanolamine (250 nM), epinephrine (1.5 μM), phosphoethanolamine (250 nM), and retinoic acid (10 nM). Primary human bronchial epithelial cells from a ΔF508 homozygous CF donor (CF-HBE cells; from University of North Carolina Cystic Fibrosis Tissue Procurement Center), grown on Transwell HTS 24-well cell culture inserts (Costar, catalog #3378), were exposed to test agents or controls dissolved in incubation medium. The CF-HBE cells were cultured at 36.5° C. for 48 hours before TECC24 recordings were performed in the presence or absence of test agent, a positive control or vehicle (DMSO).
# Following incubation, the transwell cell culture inserts containing the test agent or control-treated CF-HBE cells were loaded onto a TECC24 apparatus (TECC v7 or MTECC v2; EP Design) to record the transepithelial voltage (VT) and resistance (TEER) using 4 AgCl electrodes per well configured in current-clamp mode. The apical and basolateral bath solutions both contained (in mM) 140 NaCl, 5 KCl, 2 CaCl2), 1 MgCl2, 10 Hepes, and 10 glucose (adjusted to pH 7.4 with NaOH). To inhibit basal Na+ absorption, the ENaC inhibitor benzamil (10 μM) was added to the bath. Then, the adenylate cyclase activator, forskolin (10 μM), was added to the bath to activate CFTR. The forskolin-stimulated Cl− transport was halted by addition of CFTR inhibitor-172 (20 μM) to the bath at the end of the experiment to confirm specificity. VT and TEER recordings were digitally acquired at routine intervals using TECC or MTECC software (EP Design). VT and TEER were transformed into equivalent transepithelial Cl− current (IEQ), and the Area Under the Curve (AUC) of the IEQ time course between forskolin and CFTR inhibitor-172 addition is generated using Excel (Microsoft). Efficacy is expressed as the ratio of the test agent AUC divided by vehicle AUC. EC50s based on AUC are generated using the non-linear regression log(agonist) vs. response function in Prism software (Graphpad) with HillSlope fixed=1.
# If a test agent increased the AUC of the forskolin-stimulated IEQ relative to vehicle in CF-HBE cells, and this increase was inhibited by CFTR inhibitor-172, then the test agent was considered a CFTR corrector.
# T1 sequence (P13569 with tags, fused parts or gaps DEL508-508): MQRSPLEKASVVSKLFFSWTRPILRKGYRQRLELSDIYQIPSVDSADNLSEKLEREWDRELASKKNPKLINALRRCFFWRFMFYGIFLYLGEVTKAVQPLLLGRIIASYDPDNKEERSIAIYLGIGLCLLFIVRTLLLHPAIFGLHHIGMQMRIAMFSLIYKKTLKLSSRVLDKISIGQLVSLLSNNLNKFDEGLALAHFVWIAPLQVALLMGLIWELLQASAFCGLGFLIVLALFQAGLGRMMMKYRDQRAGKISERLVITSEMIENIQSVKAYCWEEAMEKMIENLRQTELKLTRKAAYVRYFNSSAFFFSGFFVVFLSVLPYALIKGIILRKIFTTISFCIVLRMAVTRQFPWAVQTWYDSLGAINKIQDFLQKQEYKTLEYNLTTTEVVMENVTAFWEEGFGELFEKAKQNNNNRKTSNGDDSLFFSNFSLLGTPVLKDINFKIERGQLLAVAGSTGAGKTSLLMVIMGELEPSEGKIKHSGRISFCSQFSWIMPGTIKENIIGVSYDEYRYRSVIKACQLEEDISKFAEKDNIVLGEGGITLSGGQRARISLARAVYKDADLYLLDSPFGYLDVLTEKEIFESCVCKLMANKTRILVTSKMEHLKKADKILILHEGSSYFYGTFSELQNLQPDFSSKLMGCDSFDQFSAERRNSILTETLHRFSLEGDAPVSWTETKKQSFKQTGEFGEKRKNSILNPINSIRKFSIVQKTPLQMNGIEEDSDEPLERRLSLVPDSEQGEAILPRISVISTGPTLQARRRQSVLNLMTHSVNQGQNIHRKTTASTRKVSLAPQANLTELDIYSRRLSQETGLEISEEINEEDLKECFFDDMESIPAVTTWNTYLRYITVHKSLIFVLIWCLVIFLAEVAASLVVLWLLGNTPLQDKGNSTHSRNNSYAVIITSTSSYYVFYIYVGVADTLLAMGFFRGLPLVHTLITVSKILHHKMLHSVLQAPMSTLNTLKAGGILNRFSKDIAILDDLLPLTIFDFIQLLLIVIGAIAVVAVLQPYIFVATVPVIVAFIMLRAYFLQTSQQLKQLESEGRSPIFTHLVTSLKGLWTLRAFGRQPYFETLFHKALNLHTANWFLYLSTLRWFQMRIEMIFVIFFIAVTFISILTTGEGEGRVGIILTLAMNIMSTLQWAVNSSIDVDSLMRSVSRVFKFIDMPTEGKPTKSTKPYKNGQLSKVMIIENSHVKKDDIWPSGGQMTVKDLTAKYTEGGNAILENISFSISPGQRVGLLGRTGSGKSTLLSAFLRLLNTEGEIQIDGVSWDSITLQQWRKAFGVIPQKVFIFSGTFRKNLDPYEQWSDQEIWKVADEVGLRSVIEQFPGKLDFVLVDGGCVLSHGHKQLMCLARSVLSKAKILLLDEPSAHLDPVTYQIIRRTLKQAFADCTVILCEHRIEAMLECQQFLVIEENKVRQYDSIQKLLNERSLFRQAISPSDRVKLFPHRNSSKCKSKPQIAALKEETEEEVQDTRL
Compound,TECC24 @ 10 uM over DMSO [2],DSLS NBD1/3D Human Stability delta-T (° C.) @ 100 (μM) [1]
"O=C(O)Cc1cccc(C2OCCc3cn(-c4cc(Oc5c(F)cc6[nH]ccc6c5F)ccc4F)nc32)c1F (stereo not shown) [Example 1, 2-(3-(2-(5-((4,6-difluoro-1H-indol-5-yl)oxy)-2-fluorophenyl)-2,4,5,7-tetrahydropyrano[3,4-c]pyrazol-7-yl)-2-fluorophenyl)acetic acid]",C (AUC @10 uM <= 4),B (4-8° C.)
"Cc1c(-c2cc(Oc3c(F)cc4[nH]ccc4c3S(C)(=O)=O)ccc2F)nc2n1CCNC2c1cccc(CC(C)C(=O)O)c1F (stereo not shown) [Example 8, 3-[2-fluoro-3-[2-[2-fluoro-5-[(6-fluoro-4-methylsulfonyl-1H-indol-5-yl)oxy]phenyl]-3-methyl-5,6,7,8-tetrahydroimidazo[1,2-a]pyrazin-8-yl]phenyl]-2-methyl-propanoic acid]",C (AUC @10 uM <= 4),A (T ≥ 8° C.)
"CS(=O)(=O)c1c(Oc2ccc(F)c(-c3nc4c([nH]3)C(c3cccc(CCC(=O)O)c3F)NCCC4)c2)c(F)cc2[nH]ccc12 (stereo not shown) [Example 22, 3-[2-fluoro-3-[2-[2-fluoro-5-[(6-fluoro-4-methylsulfonyl-1H-indol-5-yl)oxy]phenyl]-3,4,5,6,7,8-hexahydroimidazo[4,5-c]azepin-4-yl]phenyl]propanoic acid]",C (AUC @10 uM <= 4),A (T ≥ 8° C.)

# Second part, led by results:
TECC24 @ 10 uM over DMSO [2],Compound,DSLS NBD1/3D Human Stability delta-T (° C.) @ 100 (μM) [1]
C (AUC @10 uM <= 4),"CC(Cc1cccc(C2c3nc(-c4cc(Oc5c(F)cc6[nH]ccc6c5F)ccc4F)[nH]c3CCN2C)c1F)C(=O)O (stereo not shown) [Example 11, 3-[3-[2-[5-[(4,6-difluoro-1H-indol-5-yl)oxy]-2-fluoro-phenyl]-5-methyl-1,4,6,7-tetrahydroimidazo[4,5-c]pyridin-4-yl]-2-fluoro-phenyl]-2-methyl-propanoic acid]",A (T ≥ 8° C.)
B (AUC @10 uM between 4-12),"O=C(O)CCc1cccc(C2c3nc(-c4cc(Oc5c(F)cc6[nH]ccc6c5F)ccc4F)[nH]c3CCN2CC(F)F)c1F (stereo not shown) [Example 12, 3-[3-[5-(2,2-difluoroethyl)-2-[5-[(4,6-difluoro-1H-indol-5-yl)oxy]-2-fluoro-phenyl]-1,4,6,7-tetrahydroimidazo[4,5-c]pyridin-4-yl]-2-fluoro-phenyl]propanoic acid]",A (T ≥ 8° C.)
